These results are taken from patent US7807828B2, “Olanzapine analogs and methods of use thereof” (Hypnion, Inc., priority 2005, dated 2010).

Molecules are shown by their SMILES.

In general, Ki refers to a measure of affinity in units of concentration, obtained from inhibition or displacement.

The target of one assay is T1, H1 (hr) (Homo sapiens, UniProt P35367).
T1 construct: Novascreen, MDS, Cerep (assay providers)
Nature of the assay: H1 (hr) MDS binding assay. Conditions: Table 7A; Ki in nM. On the procedure:
(§1) Binding assays were performed using various sleep-inducing agents and derivatives selected from those listed in Table 1 in competitive binding assays with known standards for the H1 histamine receptor, and the M1, M2, and M3 muscarinic receptors, alpha 1 and alpha 2 receptors, D1 and D2 receptors, 5HT2a, 5HT2b, 5HT2c, 5HT2c, and 5HT7 receptors.
The histamine H1 assays are described in Chang, et al., Heterogeneity of Histamine H1-Receptors: Species Variation in [^3H]Mepyramine Binding of Brain Membranes. Journal of Neurochemistry. 32: 1653-1663 (1979); Martinez-Mir, M. I., Pollard, H., Moreau, J., et al. Three Histamine Receptors (H1, H2, and H3) Visualized in the Brain of Human and Non-Human Primates. Brain Res. 526: 322-327 (1990); Haaksma, E. E. J., Leurs, R. and Timmerman, H. Histamine Receptors: Subclasses and Specific Ligands. Pharmac. Ther. 47: 73-104 (1990). The muscarinic assays are described in Buckley, N. J., Bonner, T. I., Buckley, C. M., and Brann, M. R. Antagonist Binding Properties of Five Cloned Muscarinic Receptors Expressed in CHO-K1 Cells. Mol. Pharmacol. 35: 469-476 (1989). The assays were performed according to the preceding articles, with the following modifications. Chemical reagents in the following were obtained from Sigma, St. Louis, Mo.

The target in a further assay is 5HT7 (h) (Homo sapiens, UniProt P34969). Kind of assay: 5HT7 (h) binding assay. Conditions: Table 7B; unit inferred. As to the method:
as §1
In vitro binding assays are used to determine 5HT2a binding. These binding assays measure the ability of benzisoxazole analogs to displace known standards from the 5HT2a, 5HT2b, 5HT2c, and 5HT7. A decrease in the binding of the compounds to the M1-M3 receptors, relative to the binding of the compound to the 5HT2a receptor, is an indication of the greater specificity of the compound for the 5HT2a receptor over the muscarinic receptor. […] 5HT2a binding is determined as described for example in British Journal of Pharmacology (1995) 115, 622-628.

The next assay has as its system adult, male Wistar rats. Nature of the assay: Sleep-wakefulness monitoring (SCORE-2000, EEG/EMG) in rats. As to conditions: minutes; for LONGEST UNINTERRUPTED SLEEP BOUT 10 mg/kg / NREM CUMULATION 10 mg/kg: oral bolus at CT-18, 10 mg/kg. The class given is in vivo, rat. On the procedure:
Sleep-wakefulness, locomotor activity and body temperature are monitored in male Wistar rats treated with a test compound (i.e., olanzapine analog) initially at a concentration of 10 mg/kg. Higher and lower doses are assayed for select compounds (e.g., as high as 45 mg/kg, and as low as necessary to establish a no-effect dose). Treatments are administered at CT-18, the peak of the activity dominated period (6 hours after lights-off), and produced soporific (sleep-inducing) effects characterized by increased non-REM sleep time, increased sleep continuity, but without evidence of REM sleep inhibition or rebound insomnia.
Sleep-wakefulness, locomotor activity and body temperature were monitored in vivo with various compounds of the invention. Adult, male Wistar rats (250 g at time of surgery, Charles River Laboratories, Wilmington Mass.) were anesthetized (2% isoflourane in medical grade oxygen) and surgically prepared with a cranial implant to permit chronic electro-encephalogram (EEG) and electromyogram (EMG) recording. Body temperature and locomotor activity were monitored via a miniature transmitter (Mini-Mitter, Bend, Oreg.) surgically placed in the abdomen. The cranial implant consisted of stainless steel screws (two frontal (+3.2 AP from bregma, ±2.0 ML) and two occipital (−6.9 AP, ±5.5 ML)) for EEG recording. Two Teflon®-coated stainless steel wires were positioned under the nuchal trapezoid muscles for EMG recording. All leads were soldered to a miniature connector prior to surgery, and gas sterilized in ethylene oxide. The implant assembly was affixed to the skull with dental acrylic. A minimum of three weeks was allowed for surgical recovery.
Each rat was permanently housed in its own individual recording cage located within separate, ventilated compartments of custom-designed stainless steel cabinets. Each cage was enhanced with a filter-top riser and low-torque swivel-commutator. Food and water were available ad libitum. A 24-hr light-dark cycle (12 hours light, 12 hours dark) was maintained throughout the study. Animals were undisturbed for at least 48 hours before and after treatments.
Sleep and wakefulness were determined using “SCORE-2000™” (Hypnion, Worcester, Mass.)—an internet-based sleep-wake and physiological monitoring system. The system monitored amplified EEG (bandpass 1-30 Hz), integrated EMG (bandpass 10-100 Hz), body temperature and non-specific locomotor activity (LMA) via telemetry, and drinking activity, continuously and simultaneously. Arousal states were classified on-line as non-REM (NREM) sleep, REM sleep, wake, or theta-dominated wake every 10 seconds. Total drinking and locomotor activity counts, and body temperature were quantitiated and recorded each minute, using EEG feature extraction and pattern-matching algorithms. […] The classification algorithm used individually-taught EEG-arousal-state templates, plus EMG criteria to differentiate REM sleep from theta-dominated wakefulness, plus behavior-dependent contextual rules (e.g., if the animal was drinking, it is awake). Drinking and locomotor activity intensity (LMA) were recorded every 10 seconds, while body temperature was recorded each minute. Locomotor activity was detected by a telemetry receiver (Mini-Mitter) beneath the cage. Telemetry measures (LMA and body temperature) were not part of the scoring algorithm; thus, sleep-scoring and telemetry data were independent measures.
Compounds were administered at CT-18, the peak of the activity-dominated period, sufficient time was allowed to view the time course of the treatment effect before lights-on (6 hours post-treatment). Compounds were suspended in sterile 0.25% or 0.5% methylcellulose (1-2 ml/kg). Treatments were administered orally as a bolus.
A parallel group study design was employed. […]

The target of assay [1] is T2, human recombinant M3 expressed in CHO cells (Homo sapiens, UniProt P20309).
T2 construct: purchased PerkinElmer, Inc., Wellesley, Mass; host or cells: CHO cells
T2 sequence (P20309 whole entry): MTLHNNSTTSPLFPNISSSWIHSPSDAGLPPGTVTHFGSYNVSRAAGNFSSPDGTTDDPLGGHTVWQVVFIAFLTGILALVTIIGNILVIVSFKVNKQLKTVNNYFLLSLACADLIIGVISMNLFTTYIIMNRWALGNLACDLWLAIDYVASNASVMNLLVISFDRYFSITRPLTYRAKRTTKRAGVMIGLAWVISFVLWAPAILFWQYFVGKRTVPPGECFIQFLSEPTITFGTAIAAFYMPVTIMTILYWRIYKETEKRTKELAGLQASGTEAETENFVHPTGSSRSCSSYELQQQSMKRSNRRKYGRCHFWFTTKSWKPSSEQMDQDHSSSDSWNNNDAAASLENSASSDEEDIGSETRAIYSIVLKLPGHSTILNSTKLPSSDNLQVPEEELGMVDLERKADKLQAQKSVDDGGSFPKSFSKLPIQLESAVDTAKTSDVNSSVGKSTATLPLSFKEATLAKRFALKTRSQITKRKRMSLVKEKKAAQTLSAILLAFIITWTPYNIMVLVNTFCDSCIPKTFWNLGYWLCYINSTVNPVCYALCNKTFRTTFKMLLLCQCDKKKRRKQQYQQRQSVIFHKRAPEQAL
Nature of the assay: M3 muscarinic receptor binding assay. As to conditions: Table 7A, third line of column M1 M2 M3.

Another assay has as its target D1 (h) (Homo sapiens, UniProt P21728). Nature of the assay: Dopamine D1 (human recombinant) binding assay. Conditions: Table 7A; unit inferred. As to the method: Dopamine, D1 (human recombinant) binding assay was performed according to published procedures. See, e.g., Jarvie, et al. J. Recept Res., 13(1-4): 573-90 (1993); and Billard, et al. Life Sciences, 35(18): 1885-93 (1984), with modifications

The target in the next assay is Alpha 1. Nature of the assay: Alpha 1 binding assay. Conditions: Table 7A; unit inferred. As to the method:
as §1

Sequence of D1 (h) (P21728 whole entry): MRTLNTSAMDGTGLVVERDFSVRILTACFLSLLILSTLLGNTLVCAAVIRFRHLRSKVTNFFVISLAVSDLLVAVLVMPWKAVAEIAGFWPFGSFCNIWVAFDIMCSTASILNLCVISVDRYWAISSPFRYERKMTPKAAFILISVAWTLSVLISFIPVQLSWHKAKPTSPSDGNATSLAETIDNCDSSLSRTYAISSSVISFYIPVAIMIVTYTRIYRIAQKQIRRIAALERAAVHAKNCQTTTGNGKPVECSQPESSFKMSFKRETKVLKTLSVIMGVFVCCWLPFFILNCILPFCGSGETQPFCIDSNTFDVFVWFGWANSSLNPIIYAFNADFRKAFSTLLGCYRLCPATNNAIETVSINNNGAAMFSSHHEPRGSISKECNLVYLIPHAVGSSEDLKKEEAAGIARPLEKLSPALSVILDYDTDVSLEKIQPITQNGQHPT
Sequence of 5HT7 (h) (P34969 whole entry): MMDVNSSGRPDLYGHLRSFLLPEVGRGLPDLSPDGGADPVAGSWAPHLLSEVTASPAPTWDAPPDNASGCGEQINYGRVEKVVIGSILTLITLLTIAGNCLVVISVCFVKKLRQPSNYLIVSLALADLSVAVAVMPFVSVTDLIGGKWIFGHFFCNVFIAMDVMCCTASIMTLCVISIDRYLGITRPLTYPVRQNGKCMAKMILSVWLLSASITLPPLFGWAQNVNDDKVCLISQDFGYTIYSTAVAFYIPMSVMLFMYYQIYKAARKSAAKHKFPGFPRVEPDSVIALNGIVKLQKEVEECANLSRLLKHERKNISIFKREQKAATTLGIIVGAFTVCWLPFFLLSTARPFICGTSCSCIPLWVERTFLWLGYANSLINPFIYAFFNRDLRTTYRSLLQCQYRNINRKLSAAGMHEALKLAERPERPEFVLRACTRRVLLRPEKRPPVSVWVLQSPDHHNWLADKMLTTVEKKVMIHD
T1 sequence (P35367 whole entry): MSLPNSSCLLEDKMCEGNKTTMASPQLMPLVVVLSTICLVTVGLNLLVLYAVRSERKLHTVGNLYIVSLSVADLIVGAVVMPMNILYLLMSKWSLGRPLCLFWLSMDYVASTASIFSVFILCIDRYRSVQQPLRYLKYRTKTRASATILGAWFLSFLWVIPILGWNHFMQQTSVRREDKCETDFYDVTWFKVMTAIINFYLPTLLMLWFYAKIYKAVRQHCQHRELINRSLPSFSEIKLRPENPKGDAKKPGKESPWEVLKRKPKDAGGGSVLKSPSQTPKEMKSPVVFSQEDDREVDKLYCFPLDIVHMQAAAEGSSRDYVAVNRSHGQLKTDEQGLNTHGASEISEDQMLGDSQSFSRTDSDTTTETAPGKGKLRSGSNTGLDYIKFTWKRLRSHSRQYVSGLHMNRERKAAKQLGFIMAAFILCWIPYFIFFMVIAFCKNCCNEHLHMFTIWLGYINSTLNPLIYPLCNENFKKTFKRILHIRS

In the case of `Cc1cc2c(s1)Nc1ccccc1N=C2N1CCN(CC(C)(C)C(=O)O)CC1` [Compound 46], the Ki is 44 nM at H1 (hr), 4.08 µM at 5HT7 (h), above 10 µM in assay [1] and 1.55 µM at D1 (h). The “LONGEST UNINTERRUPTED SLEEP BOUT 0.3 mg/kg” value in the assay with adult, male Wistar rats (oral bolus at CT-18, 0.3 mg/kg) turned out to be 3.9 min. For the same compound, the “LONGEST UNINTERRUPTED SLEEP BOUT 1 mg/kg” value in the assay with adult, male Wistar rats (oral bolus at CT-18, 1 mg/kg) stood at 11.8 ± 2.7 min. In the assay with adult, male Wistar rats (oral bolus at CT-18, 3 mg/kg), the “LONGEST UNINTERRUPTED SLEEP BOUT 3 mg/kg” value was found to be 10.8 ± 3.2 min. Besides, the “NREM CUMULATION 3 mg/kg” value in the assay on adult, male Wistar rats (oral bolus at CT-18, 3 mg/kg) is 38 ± 4 min. Also, in the assay with adult, male Wistar rats, the “LONGEST UNINTERRUPTED SLEEP BOUT 10 mg/kg” value was 15.5 ± 4.1 min. In the assay on adult, male Wistar rats, the “NREM CUMULATION 10 mg/kg” value amounted to 42 ± 5 min.

With `Cc1cc2c(s1)Nc1ccccc1N=C2N1CCN(CC2(C(=O)O)CC2)CC1` [Compound 91], the results for the Ki (on Alpha 1; in assay [1]; at D1 (h)) were 1.96 µM, above 10 µM and 0.278 µM, respectively. In addition, the “LONGEST UNINTERRUPTED SLEEP BOUT 10 mg/kg” value in the assay on adult, male Wistar rats is 10.7 ± 3.2 min. For the same compound, the “NREM CUMULATION 10 mg/kg” value in the assay with adult, male Wistar rats came to 26 ± 4 min.

For `CCc1cc2c(s1)Nc1ccccc1N=C2N1CCN(CC(C)(C)C(=O)O)CC1` [Compound 90], the “LONGEST UNINTERRUPTED SLEEP BOUT 3 mg/kg” value in the assay on adult, male Wistar rats (oral bolus at CT-18, 3 mg/kg) was found to be 12.3 ± 4.0 min. For the same compound, the “NREM CUMULATION 10 mg/kg” value with adult, male Wistar rats stood at 48 ± 8 min. Also, the Ki was above 10 µM in assay [1] and 0.565 µM at D1 (h).

As for `CC(C)c1cc2c(s1)Nc1ccccc1N=C2N1CCN(CC(C)(C)C(=O)O)CC1` [Compound 94], in the assay with adult, male Wistar rats, the “LONGEST UNINTERRUPTED SLEEP BOUT 10 mg/kg” value amounted to 19.9 ± 3.7 min and the “NREM CUMULATION 10 mg/kg” value was 47 ± 6 min. In assay [1], the Ki is above 10 µM. The Ki at D1 (h) worked out at 0.3 µM.

The compound `Cc1cc2c(s1)Nc1ccccc1N=C2N1CCN(CCC(=O)O)CC1` [Compound 92] came in with a Ki at Alpha 1 of 2.06 µM. Further, in the assay with adult, male Wistar rats, the “LONGEST UNINTERRUPTED SLEEP BOUT 10 mg/kg” value was found to be 3.1 ± 2.5 min and the “NREM CUMULATION 10 mg/kg” value is 10 ± 4 min. For the same compound, in the assay on adult, male Wistar rats (oral bolus at CT-18, 30 mg/kg), the “LONGEST UNINTERRUPTED SLEEP BOUT 30 mg/kg” value came out at 5.7 ± 1.8 min and the “NREM CUMULATION 30 mg/kg” value amounted to 27 ± 4 min. Besides, the Ki in assay [1] was above 10 µM. For the same compound, the Ki at D1 (h) came to 0.129 µM.
